Measurements published in publication PMC4552634, “A New Set of Chemical Starting Points with Plasmodium falciparum Transmission-Blocking Potential for Antimalarial Drug Discovery” (PLoS ONE, 2015).
pIC50: −log10 of the molar value. Like-named read-outs stand apart in the source and are kept apart here.

Legend:
[1] = system: HepG2 cells; experiment: Cytotoxicity in HepG2 cells (intracellular ATP, ATPlite, 48 h); assay type: cell-based, human; conditions: IC50 HepG2 divided by IC50 P. falciparum gametocytes
[2] = as above; assay type: cell-based, human; conditions: human, HepG2 cells
[3] = system: P. falciparum asexual stages; conditions: TCAMS data, cited from earlier work; for IC50: P. falciparum asexual stages, read-out: IC50 (µM) Pf asexual stages; for pIC50: asexual stages, read-out: IC50 asexual
[4] = system: P. falciparum stage V gametocytes; experiment: Gametocytocidal ATP bioluminescence assay (single point 5 μM and 1 μM, dose-response); assay type: cell-based, Plasmodium falciparum; conditions: for Ratio IC50 HepG2/IC50 P. falciparum: IC50 HepG2 divided by IC50 P. falciparum gametocytes; for pIC50: sexual stages (gametocytes), dose-response, read-out: IC50 sexual
[5] = system: luciferase reaction (BacTiter-Glo); experiment: Interference assay (inhibition of the BacTiter-Glo luciferase reaction); assay type: biochemical; set-up: concentration or dose not given beside the values; conditions: ATP interference assay
Procedure: To discard possible false-positive results, we performed an interference assay in parallel. […] […]. The ATP solution was made by dissolving ATP powder (ATP standard from the ATPlite 1 step assay kit, reference 6016731, Perkin Elmer) in culture medium. The positive control used was the Luciferase Inhibitor I Calbiochem (Merck, 119113) at 100 μM.

[6] = HepG2, 48 h exposure, intracellular ATP, read-out: IC50 (μM) Cytotoxicity HepG2
[7] = IC50 per ratio column head, unit inferred, read-out: Cytotoxicity in HepG2
[8] = Plasmodium falciparum, P. falciparum gametocytes, average, read-out: IC50 Pf Gametocytes average, IC50 (µM) average

SMILES | % Control luminiscence [5] [%] | Ratio IC50 HepG2/IC50 P. falciparum [1] | IC50 at 48 h [2, 6] [µM] | IC50 at 48 h [2, 7] [µM] | IC50 [3] [µM] | pIC50 [3] | Ratio IC50 HepG2/IC50 P. falciparum [4] | IC50 [4, 8] [µM] | pIC50 ([4]; Plasmodium falciparum) | pIC50 [4] | IC50 ([4]; Plasmodium falciparum, gametocytes (S9 Table), read-out: pIC50game (converted)) [µM] | inhibition at 5 µM ([4]; Plasmodium falciparum, gametocytes, primary screen at 5 μM (S9 Table, CSA analogs)) [%]
Fc1ccc(NC(=S)NN=Cc2ccccn2)cc1 [TCMDC-125521] | 100 | 195 | 23 | 23.4 | 0.77 | 6.11 | 195 | 0.12 | – | – | – | –
c1ccc2sc(Sc3ncnc4sccc34)nc2c1 [TCMDC-125539] | 100 | >50 | – | > 25 | 0.73 | 6.13 | >50 | 0.5 | 6.30 | – | – | –
COc1cccc(C(=O)NC(C=Cc2ccccc2)c2cc(Cl)c3cccnc3c2O)c1 (centres unmarked) [TCMDC-125550] | 100 | >43 | – | > 25 | – | 6.07 | >43 | 0.59 | – | 6.23 | – | –
O=[N+]([O-])c1ccc(C=NNc2nc(Nc3ccccc3)nc(Nc3ccccc3)n2)o1 [TCMDC-125802] | 100 | 11 | – | 14.8 | – | 6.08 | 11 | 1.31 | – | 5.88 | – | –
CCN(CC)C(=NC(=N)Nc1ccc(Cl)cc1)NCCCCCCCCNC(=NC(=N)Nc1ccc(Cl)cc1)N(CC)CC [TCMDC-131812] | 100 | >24 | – | > 25 | – | 6.39 | >24 | 1.03 | – | – | – | –
COc1ccc(CNCc2ccc(F)cc2)cc1-c1ccc(OC)c(S(=O)(=O)NCCN2CCCC2)c1 [TCMDC-132295] | 99 | 16 | – | 11.4 | – | 6.10 | 16 | 0.72 | – | 6.14 | – | –
NCc1ccc(CNCc2cccc(-c3ccc(-c4nc5ccccc5[nH]4)cc3)c2)cc1 [TCMDC-132815] | 100 | 45 | – | 21.8 | – | 6.14 | 45 | 0.48 | – | 6.32 | – | –
Fc1ccc2[nH]c(-c3cccc(-c4cccc(CNCCN5CCNCC5)c4)c3)nc2c1 [TCMDC-132860] | 100 | 27 | 20 | 19.6 | 0.84 | 6.07 | 27 | 0.74 | 6.13 | – | – | –
Cc1cccc2nc(-c3ccc(-c4cccc(CNCCN5CCNCC5)c4)cc3)[nH]c12 [TCMDC-132867] | 100 | 16 | 13 | 13.4 | 1.23 | 5.91 | 16 | 0.84 | – | – | – | –
Fc1ccc2[nH]c(-c3ccc(-c4ccc(CNCCN5CCNCC5)cc4)s3)nc2c1 [TCMDC-132869] | 100 | >47 | – | > 25 | 0.78 | 6.11 | >47 | 0.53 | – | – | 0.53 | 101
c1cc(CN2CCC(CCN3CCCCC3)CC2)cc(-c2cccc(-c3nc4ccccc4[nH]3)c2)c1 [TCMDC-133920] | 100 | 45 | 13 | 13.1 | – | 6.85 | 45 | 0.29 | 6.53 | – | – | –
COc1cc(NC(=O)c2sc(-c3ccc(Cl)cc3)cc2NC(=O)c2cccnc2)ccc1OCCN1CCCC1 [TCMDC-135397] | 100 | >41 | – | > 25 | – | 6.42 | >41 | 0.61 | – | 6.21 | – | –
Cc1ccc(-n2c(C)nc3c(Nc4ccc(-c5ccncc5)cc4)ncnc32)c(C)c1 [TCMDC-136289] | 100 | >47 | – | > 25 | – | 7.00 | >47 | 0.53 | – | 6.27 | – | –
COc1ccc2nc3cc(Cl)ccc3c(NCCN3CCN(C)CC3)c2c1 [TCMDC-137476] | 100 | 10 | 19 | 19.3 | 0.12 | 6.91 | 10 | 1.88 | 5.73 | – | – | –
CCCCN1CCN(CCCCNc2c3ccccc3nc3ccccc23)CC1 [TCMDC-137569] | 100 | 11 | 13 | 12.7 | 0.17 | 6.78 | 11 | 1.19 | – | – | – | –
COCCCNC(=S)NN=C(C)c1ccccn1 [TCMDC-137907] | 100 | 106 | – | 17 | 0.3 | 6.53 | 106 | 0.16 | – | – | – | –

Now from value to molecule, other results behind:

% Control luminiscence [5] [%] | SMILES | Ratio IC50 HepG2/IC50 P. falciparum [1] | IC50 at 48 h [2, 6] [µM] | IC50 at 48 h [2, 7] [µM] | IC50 [3] [µM] | pIC50 [3] | Ratio IC50 HepG2/IC50 P. falciparum [4] | IC50 [4, 8] [µM] | pIC50 ([4]; Plasmodium falciparum) | pIC50 [4] | IC50 ([4]; Plasmodium falciparum, gametocytes (S9 Table), read-out: pIC50game (converted)) [µM] | inhibition at 5 µM ([4]; Plasmodium falciparum, gametocytes, primary screen at 5 μM (S9 Table, CSA analogs)) [%]
100 | COc1ccc(CNC2Cc3ccccc3C2)cc1-c1ccc(OC)c(S(=O)(=O)NCCN2CCCC2)c1 [TCMDC-132251] | 15 | – | 16.6 | – | 6.11 | 15 | 1.14 | – | – | – | –
100 | c1cc(CNCCN2CCNCC2)cc(-c2cccc(-c3nc4ccccc4[nH]3)c2)c1 [TCMDC-132859] | 27 | 19 | 19.3 | 0.96 | 6.02 | 27 | 0.71 | – | – | – | –
100 | Fc1ccc2[nH]c(-c3cccc(-c4ccc(CNCCN5CCNCC5)cc4)c3)nc2c1 [TCMDC-132863] | 17 | 24 | 24.2 | 0.9 | 6.04 | 17 | 1.45 | 5.84 | – | – | –
100 | FC(F)(F)c1ccc2[nH]c(-c3cccc(-c4ccc(CNCCN5CCNCC5)cc4)c3)nc2c1 [TCMDC-132872] | 15 | 13 | 12.6 | 0.86 | 6.06 | 15 | 0.86 | – | – | – | –
100 | Cc1n[nH]c2ccc(-c3ccc4nccc(N5CCC(N)CC5)c4c3)cc12 [TCMDC-134315] | 30 | 12 | 11.7 | 0.59 | 6.23 | 30 | 0.38 | 6.42 | – | – | –
100 | COc1cccc(Nc2c(C(N)=O)cnc3ccc(-c4ccc([S+](C)[O-])cc4)cc23)c1 (centres unmarked) [TCMDC-135184] | >18 | – | > 25 | 0.19 | 6.73 | >18 | 1.43 | 5.85 | – | – | –
100 | CCn1ncc2c(NC3CCOCC3)c(CNC(=O)c3ccnn3C)c(C)nc21 [TCMDC-136560] | >15 | – | > 25 | 0.53 | 6.27 | >15 | 1.64 | 5.79 | – | – | –
99 | COc1ccc(Nc2nccc(-c3ccc4ccnc(NCCCCN)c4c3)n2)cc1 [TCMDC-136642] | >77 | – | > 25 | – | 6.12 | >77 | 0.33 | 6.49 | – | – | –
100 | CN(C)CCNC(=O)c1ccc(-c2cnc3ccc(NCc4ccc(Cl)c(Cl)c4)nn23)cc1 [TCMDC-136678] | 50 | 17 | 16.7 | 0.91 | 6.04 | 50 | 0.33 | 6.48 | – | – | –
100 | Ic1cc(CNC2CCCCC2)ccc1OCc1cccc(COc2ccc(CNC3CCCCC3)cc2I)c1 [TCMDC-137261] | >75 | – | > 25 | – | 6.08 | >75 | 0.33 | – | 6.48 | – | –
100 | C/C=C/C=C/C1=NCCc2cc(OCCC)ccc21 [TCMDC-137442] | 25 | – | 19 | 0.91 | 6.04 | 25 | 0.75 | 6.13 | – | – | –
